These results are taken from patent US12539292B2, “BRM targeting compounds and associated methods of use” (Arvinas Operations, Inc., priority 2018, dated 2026).

Structures are written as SMILES. Like-named read-outs stand apart in the source and are kept apart here.

This experiment has as its target T1, BRM (Homo sapiens, UniProt P51531).
T1 construct: In-Cell Western Screen of BRM Degradation in SW1573 Cells; endogenous in cells; host or cells: SW1573
Kind of experiment: In-cell Western screen of BRM degradation in SW1573 cells (Dmax and DC50). Type of experiment: cell-based. The method in brief: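 Near-infrared imaging on a LI-COR Odyssey (800 and 680 nm channels) quantifies BRM remaining in fixed SW1573 cells. Cells are dosed for 18-20 h at 0.1% final DMSO, and degradation is expressed as Dmax and DC50.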

The mark [1] stands for this setting: BRM degradation, SW1573 cells, read-out: DC50.
[2] abbreviates: BRM degradation, read-out: BRM DC50.
Setting [3] is: BRM degradation, SW1573 cells, Table 2D, read-out: *DC50.
[4] abbreviates: BRM degradation, SW1573 cells, tested at the top concentration of between 0.3 and 10 μM, read-out: Dmax (%) (% degraded).

T1 sequence (P51531 whole entry): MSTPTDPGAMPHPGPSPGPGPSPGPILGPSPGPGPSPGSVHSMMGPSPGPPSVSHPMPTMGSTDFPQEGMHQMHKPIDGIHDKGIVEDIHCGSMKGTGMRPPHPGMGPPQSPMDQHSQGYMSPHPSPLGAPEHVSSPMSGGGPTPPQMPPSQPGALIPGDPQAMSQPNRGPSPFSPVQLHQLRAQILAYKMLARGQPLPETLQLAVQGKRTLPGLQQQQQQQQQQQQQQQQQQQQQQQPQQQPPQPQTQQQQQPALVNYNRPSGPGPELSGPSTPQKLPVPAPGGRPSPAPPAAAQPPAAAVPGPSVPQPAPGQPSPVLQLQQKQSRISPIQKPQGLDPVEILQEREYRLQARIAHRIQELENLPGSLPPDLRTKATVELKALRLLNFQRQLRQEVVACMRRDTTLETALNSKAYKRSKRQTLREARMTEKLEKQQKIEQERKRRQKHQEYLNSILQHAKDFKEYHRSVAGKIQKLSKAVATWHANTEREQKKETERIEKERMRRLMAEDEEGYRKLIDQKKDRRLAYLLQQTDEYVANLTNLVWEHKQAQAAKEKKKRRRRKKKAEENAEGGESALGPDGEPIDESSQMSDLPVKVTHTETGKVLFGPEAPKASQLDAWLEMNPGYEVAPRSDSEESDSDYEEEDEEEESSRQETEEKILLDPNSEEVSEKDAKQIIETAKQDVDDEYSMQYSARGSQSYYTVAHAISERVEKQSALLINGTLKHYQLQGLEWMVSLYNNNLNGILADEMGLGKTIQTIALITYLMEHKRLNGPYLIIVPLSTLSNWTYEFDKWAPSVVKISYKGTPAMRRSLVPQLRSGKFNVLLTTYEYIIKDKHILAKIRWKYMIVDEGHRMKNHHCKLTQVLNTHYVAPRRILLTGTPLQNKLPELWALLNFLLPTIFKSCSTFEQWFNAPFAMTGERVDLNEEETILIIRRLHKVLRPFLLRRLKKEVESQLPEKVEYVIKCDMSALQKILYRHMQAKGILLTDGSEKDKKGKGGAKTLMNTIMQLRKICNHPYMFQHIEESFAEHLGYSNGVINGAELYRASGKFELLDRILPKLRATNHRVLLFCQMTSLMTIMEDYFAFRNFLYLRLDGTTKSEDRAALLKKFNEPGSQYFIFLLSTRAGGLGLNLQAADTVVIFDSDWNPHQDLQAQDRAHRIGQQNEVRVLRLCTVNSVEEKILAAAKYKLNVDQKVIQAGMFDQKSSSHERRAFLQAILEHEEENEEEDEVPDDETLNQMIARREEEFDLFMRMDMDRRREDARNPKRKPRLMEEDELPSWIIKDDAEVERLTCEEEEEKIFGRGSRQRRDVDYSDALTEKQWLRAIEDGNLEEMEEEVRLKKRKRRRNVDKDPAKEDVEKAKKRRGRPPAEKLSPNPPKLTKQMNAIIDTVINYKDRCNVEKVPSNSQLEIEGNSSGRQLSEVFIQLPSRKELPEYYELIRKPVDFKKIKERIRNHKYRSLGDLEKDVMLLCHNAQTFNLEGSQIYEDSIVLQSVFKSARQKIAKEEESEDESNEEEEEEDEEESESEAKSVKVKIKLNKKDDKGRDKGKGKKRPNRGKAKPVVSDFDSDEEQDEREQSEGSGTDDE

As a reminder, the DC50 is the midpoint of the concentration-degradation curve. Consider `Cc1ncsc1-c1ccc([C@@H](COCC(C)C)NC(=O)[C@@H]2C[C@@H](O)CN2C(=O)[C@H](c2cc(OCCN3CCN(CCOc4cc(N5C6CCC5CN(c5cc(-c7ccccc7O)nnc5N)C6)ccn4)CC3)no2)C(C)C)cc1` [compound 297], for which, under setting [1], the DC50 is greater than 30 nM. One may read the Dmax as the greatest extent of degradation seen. On to `Cc1ncsc1-c1ccc([C@H](C)NC(=O)[C@@H]2C[C@@H](O)CN2C(=O)[C@@H](c2cc(N3CCC(CN4CCC(O[C@H]5C[C@H](C#C[C@@H](C)n6cc(-c7cc(-c8ccccc8O)nnc7N)cn6)C5)CC4)CC3)no2)C(C)C)cc1` [compound 496, (2S,4R)-1-((R)-2-(3-(4-((4-((1R,3r)-3-((R)-3-(4-(3-amino-6-(2-hydroxyphenyl)pyridazin-4-yl)-1H-pyrazol-1-yl)but-1-yn-1-yl)cyclobutoxy)piperidin-1-yl)methyl)piperidin-1-yl)isoxazol-5-yl)-3-methylbutanoyl)-4-hydroxy-N-((S)-1-(4-(4-methylthiazol-5-yl)phenyl)ethyl)pyrrolidine-2-carboxamide], for which the DC50 under setting [2] was less than 2.5 nM. Also, where the note is “SW1573, % degraded, when tested at the top concentration of between 0.3 and 10 μM, read-out: BRM Dmax (%)”, the Dmax was greater than 75%. `Cc1ncsc1-c1ccc([C@H](C)NC(=O)[C@@H]2C[C@@H](O)CN2C(=O)[C@@H](c2cc(N3CCC(CN4CCC(COc5cc(N6C7CCC6CN(c6cc(-c8ccccc8O)nnc6N)C7)ccn5)CC4)CC3)no2)C(C)C)cc1` [compound 603, (2S,4R)-1-((2R)-2-(3-(4-((4-(((4-(3-(3-amino-6-(2-hydroxyphenyl)pyridazin-4-yl)-3,8-diazabicyclo[3.2.1]octan-8-yl)pyridin-2-yl)oxy)methyl)piperidin-1-yl)methyl)piperidin-1-yl)isoxazol-5-yl)-3-methylbutanoyl)-4-hydroxy-N-((S)-1-(4-(4-methylthiazol-5-yl)phenyl)ethyl)pyrrolidine-2-carboxamide]: where the note is “BRM degradation, SW1573 cells, Table 2D, read-out: **Dmax (%) (% degraded)”, the Dmax was greater than 75%. Also, the DC50 under setting [3] was less than 2.5 nM. Consider `Cc1ncsc1-c1ccc(C(CCCP(=O)(O)O)NC(=O)[C@@H]2C[C@@H](O)CN2C(=O)[C@@H](c2cc(OCCN3CCC(O[C@H]4C[C@H](Oc5cc(N6C7CCC6CN(c6cc(-c8ccccc8O)nnc6N)C7)ccn5)C4)CC3)no2)C(C)C)cc1` (stereo partly drawn) [compound 702, (4-((2S,4R)-1-((2R)-2-(3-(2-(4-((1r,3R)-3-((4-(3-(3-amino-6-(2-hydroxyphenyl)pyridazin-4-yl)-3,8-diazabicyclo[3.2.1]octan-8-yl)pyridin-2-yl)oxy)cyclobutoxy)piperidin-1-yl)ethoxy)isoxazol-5-yl)-3-methylbutanoyl)-4-hydroxypyrrolidine-2-carboxamido)-4-(4-(4-methylthiazol-5-yl)phenyl)butyl)phosphonic acid], for which the DC50 (BRM degradation, SW1573 cells) is greater than 30 nM. Turning to `Cc1ncsc1-c1ccc(C2(NC(=O)[C@@H]3C[C@@H](O)CN3C(=O)[C@@H](c3cc(OCCN4CCN(CCOc5cc(N6C7CCC6CN(c6cc(-c8ccccc8O)nnc6N)C7)ccn5)CC4)no3)C(C)C)CN(C)C2)cc1` [compound 126, (2S,4R)-1-((2R)-2-(3-(2-(4-(2-((4-(3-(3-amino-6-(2-hydroxyphenyl)pyridazin-4-yl)-3,8-diazabicyclo[3.2.1]octan-8-yl)pyridin-2-yl)oxy)ethyl)piperazin-1-yl)ethoxy)isoxazol-5-yl)-3-methylbutanoyl)-4-hydroxy-N-(1-methyl-3-(4-(4-methylthiazol-5-yl)phenyl)azetidin-3-yl)pyrrolidine-2-carboxamide], under setting [1], the DC50 fell in the range of 2.5 to 10 nM. The Dmax (BRM degradation, SW1573 cells, when tested at the top concentration of between 0.3 and 10 μM, read-out: Dmax (%) (% degraded)) is greater than 75%. Take `Cc1ncsc1-c1ccc([C@@H](CCC#N)NC(=O)[C@@H]2C[C@@H](O)CN2C(=O)[C@@H](c2cc(N3CCC(CN4CCC(O[C@H]5C[C@H](Oc6cc(N7C8CCC7CN(c7cc(-c9ccccc9O)nnc7N)C8)ccn6)C5)CC4)CC3)no2)C(C)C)cc1` [compound 673, (2S,4R)-1-((2R)-2-(3-(4-((4-((1r,3r)-3-((4-(3-(3-amino-6-(2-hydroxyphenyl)pyridazin-4-yl)-3,8-diazabicyclo[3.2.1]octan-8-yl)pyridin-2-yl)oxy)cyclobutoxy)piperidin-1-yl)methyl)piperidin-1-yl)isoxazol-5-yl)-3-methylbutanoyl)-N-((R)-3-cyano-1-(4-(4-methylthiazol-5-yl)phenyl)propyl)-4-hydroxypyrrolidine-2-carboxamide]: under setting [1], the DC50 was in the range of 10 to 30 nM. In addition, the Dmax (BRM degradation, SW1573 cells, read-out: Dmax (% degraded)) lay in the range of 50 to 75%. For `Cc1ncsc1-c1cc(F)c([C@H](C)NC(=O)[C@@H]2C[C@@H](O)CN2C(=O)[C@H](c2cc(OCCN3CCC(O[C@H]4C[C@H](Oc5cc(N6C7CCC6CN(c6cc(-c8ccccc8O)nnc6N)C7)ccn5)C4)CC3)no2)C(C)C)cn1` [compound 540, (2S,4R)-1-((2S)-2-(3-(2-(4-((1r,3S)-3-((4-(3-(3-amino-6-(2-hydroxyphenyl)pyridazin-4-yl)-3,8-diazabicyclo[3.2.1]octan-8-yl)pyridin-2-yl)oxy)cyclobutoxy)piperidin-1-yl)ethoxy)isoxazol-5-yl)-3-methylbutanoyl)-N-((S)-1-(4-fluoro-6-(4-methylthiazol-5-yl)pyridin-3-yl)ethyl)-4-hydroxypyrrolidine-2-carboxamide], the DC50 under setting [3] is greater than 30 nM. Regarding `Cc1cc([C@H](C(=O)N2C[C@H](O)C[C@H]2C(=O)N[C@@H](C)c2ccc(-c3scnc3C)cc2)[C@@H](C)COCCCOc2cc(N3C4CCC3CN(c3cc(-c5ccccc5O)nnc3N)C4)ccn2)on1` [compound 495, (2S,4R)-1-((2R,3R)-4-(3-((4-(3-(3-amino-6-(2-hydroxyphenyl)pyridazin-4-yl)-3,8-diazabicyclo[3.2.1]octan-8-yl)pyridin-2-yl)oxy)propoxy)-3-methyl-2-(3-methylisoxazol-5-yl)butanoyl)-4-hydroxy-N-((S)-1-(4-(4-methylthiazol-5-yl)phenyl)ethyl)pyrrolidine-2-carboxamide], the DC50 under setting [2] is greater than 30 nM. Consider `Cc1ncsc1-c1ccc([C@H](C)NC(=O)[C@@H]2C[C@@H](O)CN2C(=O)[C@@H](c2cc(OCCN3CCN(C[C@H]4C[C@H](Oc5cc(N6C7CCC6CN(c6cc(-c8ccccc8O)nnc6N)C7)ccn5)C4)C[C@@H]3C)no2)C(C)C)cn1` [compound 296, (2S,4R)-1-((2R)-2-(3-(2-((2S)-4-(((1r,3S)-3-((4-(3-(3-amino-6-(2-hydroxyphenyl)pyridazin-4-yl)-3,8-diazabicyclo[3.2.1]octan-8-yl)pyridin-2-yl)oxy)cyclobutyl)methyl)-2-methylpiperazin-1-yl)ethoxy)isoxazol-5-yl)-3-methylbutanoyl)-4-hydroxy-N-((S)-1-(6-(4-methylthiazol-5-yl)pyridin-3-yl)ethyl)pyrrolidine-2-carboxamide], for which the DC50 under setting [1] is less than 2.5 nM. Also, the Dmax under setting [4] was greater than 75%. For the molecule `Cc1ncsc1-c1ccc([C@H](C)NC(=O)[C@@H]2C[C@@H](O)CN2C(=O)[C@@H](c2cc(OCCN3CCC(O[C@H]4C[C@H](C#Cc5cc(N6C7CCC6CN(c6cc(-c8ccccc8O)nnc6N)C7)ccn5)C4)CC3)no2)C(C)C)cc1` [compound 216, (2S,4R)-1-((2R)-2-(3-(2-(4-((1r,3R)-3-((4-(3-(3-amino-6-(2-hydroxyphenyl)pyridazin-4-yl)-3,8-diazabicyclo[3.2.1]octan-8-yl)pyridin-2-yl)ethynyl)cyclobutoxy)piperidin-1-yl)ethoxy)isoxazol-5-yl)-3-methylbutanoyl)-4-hydroxy-N-((S)-1-(4-(4-methylthiazol-5-yl)phenyl)ethyl)pyrrolidine-2-carboxamide], under setting [1], the DC50 is less than 2.5 nM. The Dmax under setting [4] is greater than 75%.
